Measured values: patent publication US4229477A, “Pharmaceutical compositions containing bromhexine and method of treating diabetic nephropathy therewith” (Boehringer Ingelheim GmbH, priority 1978, dated 1980)

Assays:
[1] = test system: glycoprotein metabolism; assay: Effect of bromhexine on glycoprotein metabolism: urinary excretion of carbohydrate-containing material, healthy subjects; type: in vivo, humans; conditions: after treatment
Protocol: (§1) The effect of N-(2-amino-3,5-dibromo-benzyl)-N-methyl-cyclohexylammonium chloride (Bromhexine) on glycoprotein metabolism was determined as follows:
(§2) 24 hour collections were made from 8 normal healthy humans (4 women and 4 men) and 8 diabetics (1 woman and 7 men) before and after a 3 to 4 week period of treating each subject orally 3 times with 24 mg of bromhexine. A 20% by volume aliquot was taken from each urine specimen and freeze-dried.
(§3) The dried material (ca 1 gm) was dissolved in the minimum quantity of distilled water and the solution was chromatographed with water on a Sephadez G-50 column (length: 148 cm; diameter: 3.4 cm). The carbohydrate-containing fraction was collected and subjected to ultrafiltration using a UM-05 membrane (Amicon Ultrafiltration Cell-Model 202). The filtrate obtained was again freeze-dried.
(§4) The dried material (ca 1 mg) was analyzed for carbohydrate, using gas-liquid chromatography. In this procedure, the sample, together with internal standards, was first subjected to methanolysis with 1.0 M HCl in dry methanol (0.5 ml) for 24 hours at 85° C. The resulting solution was neutralized and then treated with acetic acid anhydride (0.05 ml) for 6 hours. On completion of the treatment the solution obtained was centrifuged, and the supernatant liquid was transferred to a clean flask, dried and stored in a dessicator. When required for gas chromatography, the dried material was triturated with a trimethylsilylating mixture, and the resulting trimethylsilyl ethers of the methyl glycosides were subjected to gas chromatography (140°-200° C. at 0.5° C./min.).

[2] = test system: mice; conditions: British Pat. No. 968,254; cited from earlier work
[3] = test system: glycoprotein metabolism; assay: Effect of bromhexine on glycoprotein metabolism: urinary excretion of carbohydrate-containing material, diabetics; type: in vivo, humans
Protocol: as §1, §2, §3, §4
5 patients were maintained on insulin, 2 on oral hypoglycemic agents and 1 on diet alone. Diabetic treatment was not changed during the study. 3 patients suffered varying degrees of retinopathy, 1 had ischaemic heart disease and 1 had intermittent proteinuria.

[4] = healthy subjects, oral, 3 times 24 mg, 3 to 4 weeks, before 121

## CN(Cc1cc(Br)cc(Br)c1N)C1CCCCC1.Cl [bromhexine, N-(2-amino-3,5-dibromo-benzyl)-N-methyl-cyclohexylammonium chloride]
[1]; healthy subjects, oral, 3 times 24 mg, 3 to 4 weeks, 24 hour urine, before 1,281
  24 - Hour Volume: 1,406 ml
[1]; healthy subjects, oral, 3 times 24 mg, 3 to 4 weeks, before 4.2
  Fraction dry weight: 4.4 gm
[1]; healthy subjects, oral, 3 times 24 mg, 3 to 4 weeks, before 36.3
  Total dry weight: 44.0 gm
[1]; healthy subjects, oral, 3 times 24 mg, 3 to 4 weeks, before 94
  Carbohydrate content: N-Acetylneuraminic acid: 147 μMol/24 hours
[1]; [4]
  Carbohydrate content: Fucose: 224 μMol/24 hours
  Carbohydrate content: Mannose: 169 μMol/24 hours
[1]; healthy subjects, oral, 3 times 24 mg, 3 to 4 weeks, before 139
  Carbohydrate content: N-Acetylgalactosamine: 196 μMol/24 hours
[1]; healthy subjects, oral, 3 times 24 mg, 3 to 4 weeks, before 204
  Carbohydrate content: N-Acetylglucosamine: 287 μMol/24 hours
[1]; healthy subjects, oral, 3 times 24 mg, 3 to 4 weeks, before 258
  Carbohydrate content: Galactose: 364 μMol/24 hours
[1]; healthy subjects, oral, 3 times 24 mg, 3 to 4 weeks, before 329
  Carbohydrate content: Glucose: 425 μMol/24 hours
[1]; healthy subjects, oral, 3 times 24 mg, 3 to 4 weeks, before 1,085
  Carbohydrate content: Glucuronic acid: 1,573 μMol/24 hours
[1]; normal subjects
  urinary excretion of carbohydrate-containing material: insignificant rise
[2]
  animals died (acute oral toxicity): 0 out of 10
[3]; diabetic subjects, after treatment
  excretion of carbohydrate-containing material: considerable decrease
[3]; diabetics, after treatment, oral, 3 times 24 mg, 3 to 4 weeks, 24 hour urine, before 1,694
  24 - Hour Volume: 1,686 ml
[3]; diabetics, after treatment, oral, 3 times 24 mg, 3 to 4 weeks, before 8.7
  Fraction dry weight: 6.1 gm
[3]; diabetics, after treatment, oral, 3 times 24 mg, 3 to 4 weeks, before 102.6
  Total dry weight: 110.7 gm
[3]; diabetics, after treatment, oral, 3 times 24 mg, 3 to 4 weeks, before 195
  Carbohydrate content: N-Acetylneuraminic acid: 145 μMol/24 hours
[3]; diabetics, after treatment, oral, 3 times 24 mg, 3 to 4 weeks, before 205
  Carbohydrate content: Mannose: 121 μMol/24 hours
[3]; diabetics, after treatment, oral, 3 times 24 mg, 3 to 4 weeks, before 259
  Carbohydrate content: Fucose: 203 μMol/24 hours
[3]; diabetics, after treatment, oral, 3 times 24 mg, 3 to 4 weeks, before 264
  Carbohydrate content: N-Acetylgalactosamine: 176 μMol/24 hours
[3]; diabetics, after treatment, oral, 3 times 24 mg, 3 to 4 weeks, before 313
  Carbohydrate content: N-Acetylglucosamine: 181 μMol/24 hours
[3]; diabetics, after treatment, oral, 3 times 24 mg, 3 to 4 weeks, before 616
  Carbohydrate content: Galactose: 383 μMol/24 hours
[3]; diabetics, after treatment, oral, 3 times 24 mg, 3 to 4 weeks, before 1,854
  Carbohydrate content: Glucuronic acid: 987 μMol/24 hours
[3]; diabetics, after treatment, oral, 3 times 24 mg, 3 to 4 weeks, before 12,609
  Carbohydrate content: Glucose: 7,241 μMol/24 hours

## CN(Cc1cc(Br)cc(Br)c1N)C1CCCCC1 [N-(2-amino-3,5-dibromo-benzyl)-N-methyl-cyclohexylamine]
[3]; diabetics, 15 to 30 mg, 3 to 4 times per day
  proportion of saccharide and glycopeptide excreted: strongly reduced to levels equivalent to those of a normal healthy subject
